Results as given in patent US10172837B2, “Insulin sensitisers and methods of treatment” (NAIA Metabolic, Inc., priority 2007, dated 2019).

Legend:
Assay type in all cases: in vivo, Mus Musculus
[1] = system: Diet-Induced Obese (DIO) Mice; experiment: ipGTT (glucose tolerance) in diet-induced obese mice; settings: for AUC Day −1: before dosing
[2] = system: Diet-Induced Obese (DIO) Mice; experiment: Fasting plasma glucose in diet-induced obese mice; settings: for FPG Day −1: before dosing
[3] = Body weight of treated diet-induced obese mice
Procedure: Male C57Bl/6J mice were obtained at 8 weeks of age from Animal Resources Centre (Canning Vale, Western Australia). Animals were individually housed and allowed free movement and ad libitum access to water and food. Animals were maintained on a 12 hour light (6 am-6 pm) and 12 hour dark (6 pm-6 am) cycle. Animals were monitored daily. Body weight, food and water intake were recorded 3 times a week.

[4] = system: db/db mice; experiment: Fasting plasma glucose in db/db mice; settings: for FPG Day 0: Metformin 300 mg/kg group
Excerpt: The db/db mouse model comprises mice with a homozygous mutation of the leptin receptor gene that ablates leptin signalling in the hypothalamus and elsewhere. The db/db mouse model is commonly used to study the genetic and physiological mechanisms of obesity and type II diabetes. […] Leptin acts through the leptin receptor to control whole-body energy homeostasis by regulating both appetite and energy expenditure. Loss of function of the leptin receptor gene results in hyperphagia and slower metabolism, leading to obesity and eventually diabetes. […] Dosing solutions of the test articles: Methazolamide, Metformin and Methazolamide/Metformin were prepared fresh on each dosing day and stored at room temperature, protected from light. The compound was formulated in sterile vehicle: […] Stock solutions were prepared by dissolving the compound in NMP:PEG300 (1:2, v/v). Saline was added to the stock solution prior to administration of the compound. The solutions were mixed by vortexing immediately prior to dosing to ensure a homogeneous suspension of the compound. Male C57Bl/6J db/db mice were obtained at 10 weeks of age from Animal Resources Centre ([…], Western Australia). Animals were individually housed and allowed free movement and ad libitum access to water and food. Animals were maintained on a 12 hour light (6 am-6 pm) and 12 hour dark (6 pm-6 am) cycle. Animals were monitored daily. Body weight, food and water intake were recorded 3 times a week. Mice were fed a standard chow diet, and used after a two week acclimatisation period. […] The fasting plasma glucose levels of the animals was tested prior to commencement of the study and then every 3-4 days during dosing. The animals were fasted for a period of 4 hours after dosing and prior to the taking of a blood sample via a tail nick. Blood glucose levels were monitored using commercially available glucometers (Accuchek Advantage, Roche) based on the electric current generated when a blood drop is spotted on a test strip resulting in conversion of the glucose present in the sample to gluconolactone by the glucose dehydrogenase enzyme, in the presence of the coenzyme (PQQ).

[5] = Acetazolamide 10 mg/kg b.i.d. oral gavage
[6] = Acetazolamide 20 mg/kg b.i.d. oral gavage
[7] = Acetazolamide 50 mg/kg b.i.d. oral gavage
[8] = Chlorthalidone 10 mg/kg oral gavage
[9] = Chlorthalidone 20 mg/kg oral gavage
[10] = Chlorthalidone 50 mg/kg oral gavage
[11] = Furosemide 10 mg/kg oral gavage
[12] = Furosemide 20 mg/kg oral gavage
[13] = Furosemide 50 mg/kg oral gavage
[14] = Metformin 300 mg/kg oral gavage

Structure (SMILES): CC(=O)Nc1nnc(S(N)(=O)=O)s1 [Acetazolamide]
- effect on glucose tolerance of diet-induced obese mice [1]: increased the glucose tolerance
- AUC Day 13 [1, 5]: 944 ± 26 mM·min
- AUC Treatment vs Vehicle Day 13 [1, 5]: −22%^2
- Delta AUC Treatment Day 13 vs Day −1 [1, 5]: −30%^1
- AUC Day −1 ([1]; Acetazolamide 10 mg/kg group): 1342 ± 88 mM·min
- AUC Day 13 [1, 6]: 902 ± 98 mM·min
- AUC Treatment vs Vehicle Day 13 [1, 6]: −25%^3
- Delta AUC Treatment Day 13 vs Day −1 [1, 6]: −33%^1
- AUC Day −1 ([1]; Acetazolamide 20 mg/kg group): 1340 ± 68 mM·min
- AUC Day 13 [1, 7]: 1020 ± 144 mM·min
- AUC Treatment vs Vehicle Day 13 [1, 7]: −15%^
- Delta AUC Treatment Day 13 vs Day −1 [1, 7]: −23%^2
- AUC Day −1 ([1]; Acetazolamide 50 mg/kg group): 1323 ± 109 mM·min
- effect on fasting plasma glucose levels of diet-induced obese mice [2]: reduced the fasting plasma glucose levels
- Delta FPG Treatment Day 13 vs Day −1 [2, 5]: −9%
- FPG Day 13 [2, 5]: 5.76 ± 0.43 mM
- FPG Treatment vs Vehicle Day 13 [2, 5]: −9%
- FPG Day −1 ([2]; Acetazolamide 10 mg/kg group): 6.35 ± 0.5 mM
- Delta FPG Treatment Day 13 vs Day −1 [2, 6]: −14%^2
- FPG Day 13 [2, 6]: 5.46 ± 0.32 mM
- FPG Treatment vs Vehicle Day 13 [2, 6]: −14%^1
- FPG Day −1 ([2]; Acetazolamide 20 mg/kg group): 6.32 ± 0.42 mM
- Delta FPG Treatment Day 13 vs Day −1 [2, 7]: −5%
- FPG Day 13 [2, 7]: 6.28 ± 0.31 mM
- FPG Treatment vs Vehicle Day 13 [2, 7]: −1%
- FPG Day −1 ([2]; Acetazolamide 50 mg/kg group): 6.62 ± 0.38 mM
- difference in body weight between treated groups ([3]; Day 0 or Day 13, DIO mice): no difference in body weight

Structure (SMILES): NS(=O)(=O)c1cc(C2(O)NC(=O)c3ccccc32)ccc1Cl (stereo not drawn) [Chlorthalidone]
- effect on glucose tolerance of diet-induced obese mice [1]: no beneficial effect
- AUC Day −1 ([1]; Chlorthalidone 10 mg/kg group): 1439 ± 137 mM·min
- AUC Day 13 [1, 8]: 1660 ± 137 mM·min
- AUC Treatment vs Vehicle Day 13 [1, 8]: 29%
- Delta AUC Treatment Day 13 vs Day −1 [1, 8]: 15%
- AUC Day −1 ([1]; Chlorthalidone 20 mg/kg group): 1416 ± 110 mM·min
- AUC Day 13 [1, 9]: 1263 ± 75 mM·min
- AUC Treatment vs Vehicle Day 13 [1, 9]: −2%
- Delta AUC Treatment Day 13 vs Day −1 [1, 9]: −11%
- AUC Day −1 ([1]; Chlorthalidone 50 mg/kg group): 1398 ± 87 mM·min
- AUC Day 13 [1, 10]: 1512 ± 46 mM·min
- AUC Treatment vs Vehicle Day 13 [1, 10]: 17%
- Delta AUC Treatment Day 13 vs Day −1 [1, 10]: 8%
- effect on fasting plasma glucose levels of diet-induced obese mice [2]: no beneficial effect
- FPG Day −1 ([2]; Chlorthalidone 10 mg/kg group): 7.8 ± 0.31 mM
- Delta FPG Treatment Day 13 vs Day −1 [2, 8]: 4%
- FPG Day 13 [2, 8]: 8.08 ± 0.35 mM
- FPG Treatment vs Vehicle Day 13 [2, 8]: 5%
- FPG Day −1 ([2]; Chlorthalidone 20 mg/kg group): 7.58 ± 0.18 mM
- Delta FPG Treatment Day 13 vs Day −1 [2, 9]: −7%
- FPG Day 13 [2, 9]: 7.08 ± 0.31 mM
- FPG Treatment vs Vehicle Day 13 [2, 9]: −8%
- FPG Day −1 ([2]; Chlorthalidone 50 mg/kg group): 7.94 ± 0.4 mM
- Delta FPG Treatment Day 13 vs Day −1 [2, 10]: −7%
- FPG Day 13 [2, 10]: 7.4 ± 0.51 mM
- FPG Treatment vs Vehicle Day 13 [2, 10]: −4%

Structure (SMILES): NS(=O)(=O)c1cc(C(=O)O)c(NCc2ccco2)cc1Cl [Furosemide]
- FPG Day −1 ([2]; Furosemide 10 mg/kg group): 7.28 ± 0.3 mM
- Delta FPG Treatment Day 13 vs Day −1 [2, 11]: 24%
- FPG Day 13 [2, 11]: 9.02 ± 0.4 mM
- FPG Treatment vs Vehicle Day 13 [2, 11]: 4%
- FPG Day −1 ([2]; Furosemide 20 mg/kg group): 7.4 ± 0.4 mM
- Delta FPG Treatment Day 13 vs Day −1 [2, 12]: 15%
- FPG Day 13 [2, 12]: 8.50 ± 0.4 mM
- FPG Treatment vs Vehicle Day 13 [2, 12]: −2%
- FPG Day −1 ([2]; Furosemide 50 mg/kg group): 6.78 ± 0.3 mM
- Delta FPG Treatment Day 13 vs Day −1 [2, 13]: 20%
- FPG Day 13 [2, 13]: 8.16 ± 0.6 mM
- FPG Treatment vs Vehicle Day 13 [2, 13]: −6%
- outcome of animals ([3]; 100 mg/kg/d, DIO mice): had to be euthanized
- body weight lost ([3]; 100 mg/kg/d, in 5 days, DIO mice): ~6 g
- body weight effect ([3]; DIO mice, consistent with a toxic effect): substantial body weight loss

Structure (SMILES): CN(C)C(=N)N=C(N)N [Metformin]
- AUC Day −1 ([1]; Metformin 300 mg/kg group): 1171 ± 81 mM·min
- AUC Day 13 [1, 14]: 1307 ± 91 mM·min
- AUC Day 13 Treat vs Veh [1, 14]: 8%
- Delta AUC Day 13 vs Day −1 [1, 14]: 12%
- FPG Day 0 ([4]; before dosing (Table 9-1)): 23.86 ± 1.4 mM
- FPG Day 0 ([4]; before dosing (Table 9-2)): 23.86 ± 1.4 mM
- Delta FPG Treatment Day 8 vs Day 0 [4, 14]: −20%^2
- Delta FPG Treatment Day 18 vs Day 0 [4, 14]: −16%^
- FPG Day 8 [4, 14]: 19.10 ± 2.1 mM
- FPG Day 18 [4, 14]: 20.01 ± 1.8 mM
- FPG Treatment vs Vehicle Day 8 [4, 14]: −18%^
- FPG Treatment vs Vehicle Day 18 [4, 14]: −27%^4
- FPG Day −1 ([2]; Metformin 300 mg/kg group): 6.1 ± 0.6 mM
- Delta FPG Treatment Day 13 vs Day −1 [2, 14]: 11%
- Delta FPG Treatment vs Vehicle Day 13 [2, 14]: −11%
- FPG Day 13 [2, 14]: 6.8 ± 0.4 mM
